Source: US10738084B2, “Macrocycles” (Sentry Therapeutics Limited, priority 2015, dated 2020)

Test system: IL-2 production by Jurkat cells
Assay: Inhibition of IL-2 production by Jurkat cells after PMA/PHA co-stimulation (ELISA)
Assay type: cell-based, human
Settings: PMA and PHA co-stimulation; for IL-2% Inhibition: 24 hours
Method: Compounds of the invention were tested for their activity as inhibitors of T Cell stimulation by measuring the effect on IL-2 production by Jurkat cells following PMA (phorbol 12-myristate 13-acetate) and PHA (phytohemagglutinin) co-stimulation. All new compounds were tested at 0.1 uM, 1 uM and 10 uM. Cyclosporine A (control) was also tested at 0.1 uM, 1 uM and 10 uM. All compounds to be tested were dissolved in dimethyl sulfoxide. Cytotoxicity was evaluated with parallel Alamar Blue plates. Jurkat cells were seeded at 2×10^5 cells per well in 200 μL growth media in a clear, U-bottom 96-well plate. Cells were cultured in RPMI 1640 medium, 10% fetal bovine serum, and L-Glutamine with incubation at 37° C. with 5% carbon dioxide. After 1 hour of incubation the cells were stimulated with PMA (12.5 uL of a 1 ng/mL solution in 1% DMSO/media) and PHA (12.5 uL of a 5 ug/mL solution in PBS). After 24 hours the sample supernatants were harvested and stored at −80° C. A sample of the supernatant (25 uL) was diluted with RPMI (25 uL) and the concentration of human IL-2 was determined by ELISA (Pierce, EH2IL25).

C=CC1CC(C)C(C2C(=O)NC(CC)C(=O)N(C)C(SCCN(C)C)C(=O)N(C)C(CC(C)(C)O)C(=O)NC(C(C)C)C(=O)N(C)C(CC(C)C)C(=O)NC(C)C(=O)NC(C)C(=O)N(C)C(CC(C)C)C(=O)N(C)C(CC(C)C)C(=O)N(C)C(C(C)C)C(=O)N2C)O1 [Example G, 1-[(2S)—N-methyl-2-[tetrahydro-5-ethenyl-3-methyl-2-furanyl]glycine]-3-[2R-[[2-(dimethylamino)ethyl]thio]-N-methylglycine]-4-(4-hydroxy-N-methyl-L-leucine)-cyclosporin A]
IC50: > 10 µM

CCC1CC(C)C([C@H]2C(=O)N[C@@H](CC)C(=O)N(C)CC(=O)N(C)[C@@H](CC(C)(C)O)C(=O)N[C@@H](C(C)C)C(=O)N(C)[C@@H](CC(C)C)C(=O)N[C@@H](C)C(=O)N[C@H](C)C(=O)N(C)[C@@H](CC(C)C)C(=O)N(C)[C@@H](CC(C)C)C(=O)N(C)[C@@H](C(C)C)C(=O)N2C)O1 (stereo partly drawn) [Example C, 1-[(2S)—N-Methyl-2-[tetrahydro-5-ethyl-3-methyl-2-furanyl]glycine]-4-(4-hydroxy-N-methyl-L-leucine)-cyclosporin A]
IL-2% Inhibition (1 uM): 16%

C=CC1CC(C)C(C2C(=O)NC(CC)C(=O)N(C)CC(=O)N(C)C(CC(C)(C)O)C(=O)NC(C(C)C)C(=O)N(C)C(CC(C)C)C(=O)NC(C)C(=O)NC(C)C(=O)N(C)C(CC(C)C)C(=O)N(C)C(CC(C)C)C(=O)N(C)C(C(C)C)C(=O)N2C)O1 [Example D, 1-[(2S)—N-methyl-2-[tetrahydro-5-ethenyl-3-methyl-2-furanyl]glycine]-4-(4-hydroxy-N-methyl-L-leucine)-cyclosporin A]
IL-2% Inhibition (1 uM): 8%

CCC1CC(C)C([C@H]2C(=O)N[C@@H](CC)C(=O)N(C)CC(=O)N(C)[C@@H](CC(C)C)C(=O)N[C@@H](C(C)C)C(=O)N(C)[C@@H](CC(C)C)C(=O)N[C@@H](C)C(=O)N[C@H](C)C(=O)N(C)[C@@H](CC(C)C)C(=O)N(C)[C@@H](CC(C)C)C(=O)N(C)[C@@H](C(C)C)C(=O)N2C)O1 (stereo partly drawn) [Example A, 1-[(2S)—N-Methyl-2-[tetrahydro-5-ethyl-3-methyl-2-furanyl]glycine]-cyclosporin A]
IL-2% Inhibition (1 uM): 84%

CCC1CC(C)C([C@H]2C(=O)N[C@@H](CC)C(=O)N(C)[C@H](SCCN(C)C)C(=O)N(C)[C@@H](CC(C)(C)O)C(=O)N[C@@H](C(C)C)C(=O)N(C)[C@@H](CC(C)C)C(=O)N[C@@H](C)C(=O)N[C@H](C)C(=O)N(C)[C@@H](CC(C)C)C(=O)N(C)[C@@H](CC(C)C)C(=O)N(C)[C@@H](C(C)C)C(=O)N2C)O1 (stereo partly drawn) [Example F, 1-[(2S)—N-methyl-2-[tetrahydro-5-ethyl-3-methyl-2-furanyl]glycine]-3-[2R-[[2-(dimethylamino)ethyl]thio]-N-methylglycine]-4-(4-hydroxy-N-methyl-L-leucine)-cyclosporin A]
IL-2% Inhibition (1 uM): 2%
IL-2% Inhibition (10 uM): 5%
